The IC50 is the concentration that inhibits the measured activity by half. High values mean a need for much substance, low ones inhibition by little substance. For orientation: MIC means the lowest concentration found to suppress growth. The low end stands for greater potency, the high end for weaker potency.

Structures are written as SMILES. ≈ marks a conversion by molar mass, not a printed value.

In experiment [1] the test system is HCT-116 cells. The experiment is described as follows: Western blot, apoptotic biomarkers, tumor suppressor genes and oncogenes, HCT-116. The class given is cell-based, human. The following applies: for PARP cleavage / Cleavage of caspase7 and caspase-3 / Levels of p53 proteins / c-Myc oncogene level: HCT-116; for PARP cleavage / Cleavage of caspase7 and caspase-3: 1 to 4 μM, 48 h; for Cleavage of caspase7 and caspase-3: clear at 4 μM; for Levels of p53 proteins: at higher concentrations; for c-Myc oncogene level: dose-dependent manner; for Levels of BAX: treated cells, parallel to decreased p53. The protocol: Western blotting (apoptotic biomarkers, tumor suppressor genes and oncogenes): Hep3B and HCT-116 cells were treated with 1f and 1h compounds with increasing concentrations from 1 to 4 μM for 48 h. After reaching the time point, proteins were extracted from the collected cells after their lyses, and protein quantification was performed using a Detergent compatible (DC) protein assay kit (Bio-Rad) following the manufacturer's instructions. 12% SDS-polyacrylamide gels were used to separate the proteins, following the proteins were transferred onto nitrocellulose membrane using a semi-dry transfer cell. After transfer, membranes were incubated with primary antibodies and the incubation was left overnight at 4° c. The following antibodies were implicated: anti-β actin (Cell Signalling #4970), anti-caspase3 (Cell Signalling #14220), anti-caspase-7 (Cell Signalling33 #9492), anti-PARP (Cell Signalling #9532), anti-P53 (Cell Signalling #2527), anti-C-myc (Cell Signalling #18583), and anti-BAX (#5023). Finally, membranes were incubated with secondary conjugated with horseradish peroxidase. The indicated proteins were detected by chemiluminescence.

The subject of experiment [2] is HCT-116. The experiment is described as follows: MTT cell viability, HCT-116. Format: cell-based. The following applies: Homo sapiens, colon cancer, 48 h of drug treatment, average of three experiments. The source says: Cell culture: In this study five different cancer cell lines were used, human lung carcinoma (A549), human breast adenoma (MCF-7), Cervical carcinoma (Hela), hepatocellular carcinoma (Hep3B), and colorectal adenocarcinoma (HCT-116). These cells were obtained from the European Collection of Cell Cultures (ECACC, UK). Hep3B cells were maintained in Dulbecco's Modified Eagle Medium (DMEM: Sigma-Aldrich), and the four other cell lines were maintained in Roswell Park Memorial Institute medium (RPMI, Sigma-Aldrich, St. Louis, Mo., USA), which was supplemented with 10% fetal bovine serum (FBS, Sigma-Aldrich) and 1% penicillin/streptomycin (Sigma-Aldrich). Cells were incubated all the time at 37° C. in a humidified atmosphere of 5% CO2. Cell viability studies: Cell viability was assessed using the MTT assay as described before. In brief, all cancer cell lines were seeded at a density of 4×10^4/well in 96 well flat-bottom plates. After 24 h from seeding, cells were treated with the synthesized compounds and left for an incubation period of 48 h. Upon reaching the indicated time point, the media was removed and replaced with 200 μL fresh media containing 0.5 mg/mL of MTT tetrazolium dye (Sigma-Aldrich). Cells were then incubated with MTT solution for 2 h at 37° C. The resultant formazan crystals were dissolved in 200 μl/well of DMSO and absorbance was measured at 570 nm using a microplate reader (Thermo Scientific).

Experiment [3] relates to Acinetobacter baumannii ATCC 19606. The experiment is described as follows: MIC broth microdilution, A. baumannii ATCC 19606. Format: cell-based. As to conditions: Acinetobacter baumannii, ATCC19606; not MDR; overnight incubation. In short, it runs like this:
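Strains are MRSA clinical isolates, a reference MRSA strain, or non-MDR A. baumannii ATCC 19606. Each was grown in Mueller-Hinton broth at approximately 5×10^5 CFU/mL against compound serially halved from 100 to 0.78 μg/mL. MIC was read by eye after overnight 37° C incubation.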
A general note: Dilution methods test growth across graded concentrations, often in twofold steps.

Experiment [4] has as its system JIMT1. The experiment is described as follows: MTT cell viability, JIMT1. The class given is cell-based. As to conditions: Homo sapiens, JIMT-1; breast cancer; 48 h of drug treatment; average of three experiments. The procedure:
Cell viability studies: Cell viability was assessed using the MTT assay as described before. In brief, all cancer cell lines were seeded at a density of 4×10^4/well in 96 well flat-bottom plates. After 24 h from seeding, cells were treated with the synthesized compounds and left for an incubation period of 48 h. Upon reaching the indicated time point, the media was removed and replaced with 200 μL fresh media containing 0.5 mg/mL of MTT tetrazolium dye (Sigma-Aldrich). Cells were then incubated with MTT solution for 2 h at 37° C. The resultant formazan crystals were dissolved in 200 μl/well of DMSO and absorbance was measured at 570 nm using a microplate reader (Thermo Scientific).

Experiment [5] has as its system Hela cells. Kind of experiment: Western blot, autophagy- and iron metabolism-related proteins, Hela. The class given is cell-based, human. The procedure: Western Blotting (autophagy- and iron metabolism-related proteins): Cells were grown in DMEM supplemented with 10% FBS and 1×PEST (Penicillin and streptomycin antibiotics) at 37° C. in incubator having humidified atmosphere with 5% CO2. The media were removed and cells were washed twice with 1× cold PBS. Cells lysis was performed with RIPA lysis buffer containing (150 mM sodium chloride, 1.0% NP-40, 0.1% SDS, 50 mM Tris pH 8.0, 0.5% sodium deoxycholate supplemented with protease inhibitors cocktail). Cells were kept on icebox during the lysis process. Cold lysis buffer was added to each well directly and then cells were scraped and collected in 1.5 ml Eppendorf tube. Cell lysis was kept on icebox for 20 minutes and then centrifuged at 4° C. for 10 minutes. The supernatant was collected and the pellet was discarded. After, protein quantification, samples were boiled in 5× loading buffer at 95° C. for 5 minutes. After completion of the gel running and transfer process, the membrane was stained with ponceau solution. After that, the membrane was washed with 1×TBST and then blocked in 5% non-fat dry milk for 1 hr at room temperature. The membrane was washed 3 times with 1×TBST and then incubated with indicated primary antibodies at 4° C. overnight. Primary antibodies were removed; the membrane was washed 3 times with 1×TBST and then incubated with secondary antibodies for 2 h at room temperature. Secondary antibodies were diluted in 5% non-fat dry milk in 1× TB ST. After removal of the secondary antibody, the membrane was washed 3 times with 1×TBST. The membrane was incubated in ECL solution and the signal was developed using Gel Doc system from Biorad.
In general terms: In western blotting, separated proteins are transferred to a membrane and probed.

Take `Cc1ccc2c(c1)c1c3n2[C@@]2(C=C/C(=N\Nc4ccc(C(F)(F)F)cc4)CC2)CC[C@@H]3NCC1` [Compound 1h]: in experiment [1], the PARP cleavage result is on record as “PARP cleavage”; the “Cleavage of caspase7 and caspase-3” value is listed as “cleavage”; the “Levels of p53 proteins” value is reported as “decreased”; the c-Myc oncogene level result was “downregulate”. Besides, the “Levels of BAX” value in experiment [1] is “decreased levels”. The IC50 in experiment [2] amounted to 1.78 ± 0.7 µM. The MIC in experiment [3] was 6.25 µg/mL (≈ 13.5 µM).
`COc1ccc2c(c1)c1c3n2[C@@]2(C=C/C(=N\Nc4ccc(C(F)(F)F)cc4)CC2)CC[C@@H]3NCC1` [Compound 1k]: the IC50 in experiment [2] turned out to be 3.39 ± 0.04 µM. Besides, in experiment [3], the minimal inhibitory concentration (MIC) was found to be 6.25 µg/mL (≈ 13 µM). The same compound gave an IC50 in experiment [4] of 3.49 ± 0.06 µM. Also, in experiment [5], the “Expression and metabolism of autophagy marker LC3B1/II” value is recorded as “upregulate”; the “Expression of DNA damage marker pH2AX” value was “induce”.
For `FC(F)(F)Oc1ccc(N/N=C2\C=C[C@@]3(CC2)CC[C@@H]2NCCc4c2n3c2ccccc42)cc1` [Compound 1f], in experiment [1], the PARP cleavage entry is “PARP cleavage”; the “Cleavage of caspase7 and caspase-3” value is recorded as “cleavage”; the “Levels of p53 proteins” value is recorded as “decreased”; the c-Myc oncogene level entry is on record as “downregulate”. Besides, in experiment [1], the “Levels of BAX” value is recorded as “decreased levels”. The compound further came in with an IC50 in experiment [2] of 1.96 ± 0.05 µM. In experiment [3], this compound came in with an MIC of 12.5 µg/mL (≈ 26.8 µM).
In turn, `FC(F)(F)c1ccc(N/N=C2\C=C[C@@]3(CC2)CC[C@@H]2NCCc4c2n3c2ccccc42)cc1` (racemic) [Compound 1e] yielded an IC50 in experiment [2] of 0.487 ± 0.03 µM. The same compound came in with an MIC in experiment [3] of 6.25 µg/mL (≈ 13.9 µM). It took 3.08 ± 0.14 µM to reach half-maximal inhibition in experiment [4] (IC50). In experiment [5], the “Expression and metabolism of autophagy marker LC3B1/II” value is listed as “upregulate”; the “Expression of Ferritin heavy chain (FTH1)” value is reported as “inhibits”; the “Expression of cell cycle marker CDK6” value is “inhibits”; the “Expression of cellular iron exporter protein Ferroportin (FPN)” value is “inhibits”.

(Values after patent US11286258B2, “Nature-inspired anticancer and antibacterial motifs and pharmaceutical composition thereof” (University of Sharjah, priority 2020, dated 2022).)
